Values of other authors, collected in patent US20230414496A1, “BIODEGRADABLE POLYMER-NANOPARTICLE BASED IMPLANTS FOR OCULAR DRUG DELIVERY” (priority 2020, published 2023).
Where two headings read alike, the source gives them in different places.

Tests used:
[1] = 400 μg MTX intravitreal injection, pre-clinical study; read-out: peak MTX concentration (Cmax-MTX)
[2] = 400 μg MTX intravitreal injection

Cmax [1]: 400 µM
total duration of MTX release ([2]; clinical study and pre-clinical study): 2 to 6 days
Cmax ([2]; clinical study, read-out: peak MTX concentration (Cmax-MTX)): 360 µM
Compound: CN(Cc1cnc2nc(N)nc(N)c2n1)c1ccc(C(=O)N[C@@H](CCC(=O)O)C(=O)O)cc1 [methotrexate]
